Measured values published in the NIST ThermoML archive (doi:10.1021/acs.jced.6b00202).

COC(C)(C)C [2-methoxy-2-methylpropane]
Liquid, Brillouin light scattering
Conditions	speed of sound [m/s]
343.24 K, 10000 kPa	941
348.1 K, 5500 kPa	874.9
348.12 K, 7000 kPa	890.7
348.16 K, 4000 kPa	858.5
348.16 K, 8500 kPa	907.4
348.17 K, 10000 kPa	915.3
348.22 K, 1000 kPa	829.7
348.22 K, 2500 kPa	844.7
353.05 K, 5500 kPa	858.5
353.1 K, 7000 kPa	868.9
353.11 K, 10000 kPa	903.3
353.2 K, 2500 kPa	825.4
353.22 K, 4000 kPa	841.4
353.23 K, 8500 kPa	889.4
353.25 K, 1000 kPa	800
358.08 K, 7000 kPa	852.1
358.09 K, 5500 kPa	835.6
358.14 K, 8500 kPa	866.9
358.15 K, 1000 kPa	779.2
358.18 K, 10000 kPa	883.2
358.19 K, 2500 kPa	802.1
358.19 K, 4000 kPa	816.3
363.06 K, 1000 kPa	761.1
363.09 K, 2500 kPa	775.4
363.09 K, 5500 kPa	811.7
363.14 K, 7000 kPa	833.6
363.18 K, 8500 kPa	844.2
363.23 K, 4000 kPa	796.3
363.24 K, 10000 kPa	863.5
368.06 K, 5500 kPa	796.6
368.08 K, 10000 kPa	844.9
368.13 K, 7000 kPa	813
368.15 K, 1000 kPa	734.3
368.16 K, 4000 kPa	777
368.21 K, 8500 kPa	831.5
368.25 K, 2500 kPa	754.9
373.07 K, 1000 kPa	713.9
373.07 K, 10000 kPa	828.1
373.11 K, 8500 kPa	811.5
373.12 K, 5500 kPa	770.2
373.16 K, 4000 kPa	753.8
373.17 K, 2500 kPa	733.6
373.24 K, 7000 kPa	791.5
378.06 K, 4000 kPa	732.9
378.07 K, 5500 kPa	751.9
378.07 K, 7000 kPa	770.5
378.13 K, 2500 kPa	711.8
378.13 K, 8500 kPa	791.5
378.22 K, 1000 kPa	691.3
378.25 K, 10000 kPa	804
383.07 K, 1000 kPa	666.2
383.08 K, 4000 kPa	713
383.12 K, 2500 kPa	690.6
383.13 K, 7000 kPa	753.8
383.15 K, 8500 kPa	769.5
383.18 K, 5500 kPa	731.2
383.21 K, 10000 kPa	789.5
388.09 K, 5500 kPa	711.4
388.16 K, 7000 kPa	730.1
388.2 K, 4000 kPa	690

Conditions	speed of sound [m/s]
348.24 K, Liquid, Brillouin Light Scattering	797.5
353.11 K, Liquid, Brillouin Light Scattering	781.5
358.22 K, Liquid, Brillouin Light Scattering	748.6
363.16 K, Liquid, Brillouin Light Scattering	727.1
368.17 K, Liquid, Brillouin Light Scattering	707.1
373.05 K, Liquid, Brillouin Light Scattering	698.9
378.05 K, Liquid, Brillouin Light Scattering	668.3
378.1 K, Gas, Brillouin light scattering	171.6
383.08 K, Liquid, Brillouin Light Scattering	646.4
388.11 K, Liquid, Brillouin Light Scattering	627.5
388.2 K, Gas, Brillouin light scattering	170.9
